# Measurements as given in US5434132A, “Neuropeptide antagonists” (Imperial Cancer Research Technology, Ltd., priority 1988, dated 1995).
# Like-named read-outs stand apart in the source and are kept apart here. Non-standard residues stand in square brackets, D forms with d. Residues, ends and D or L forms follow the SMILES beside them. No end group written: not given here. *: point of attachment. X1 = CC(C)C[C@@H](CN[C@@H](CC(C)C)C(N)=O)N*; pGlu = O=C1CC[C@@H](C(=O)O)N1
# Assays:
# Swiss 3T3 cells [1] = assay: Vasopressin-induced DNA synthesis in Swiss 3T3 cells; assay type: cell-based, murine
# Swiss 3T3 cells [2] = assay type: cell-based, murine
# Swiss 3T3 cells [3] = assay: Mitogenesis stimulated by VIP in Swiss 3T3 cells; assay type: cell-based, murine
# [4] = test system: bombesin/GRP, bradykinin and vasopressin receptors; assay: Mitogenic responses elicited through bombesin/GRP, bradykinin and vasopressin receptors; assay type: cell-based, murine
# Swiss 3T3 cells [5] = test system: Swiss 3T3 cells
# Swiss 3T3 cells [6] = test system: Swiss 3T3 cells; remark: listed apart in the source
# Swiss 3T3 cells [7] = conditions: earlier patent application and references 10, 11; cited from earlier work
# Swiss 3T3 cells [8] = conditions: references 4,12,13; cited from earlier work
# vasopressin receptor [9] = target: T1, vasopressin receptor (Mus musculus, UniProt Q62463); conditions: references 4,12,13; cited from earlier work
# T1 construct: endogenous in cells; host or cells: Swiss 3T3 cells
# T1 sequence (Q62463 whole entry): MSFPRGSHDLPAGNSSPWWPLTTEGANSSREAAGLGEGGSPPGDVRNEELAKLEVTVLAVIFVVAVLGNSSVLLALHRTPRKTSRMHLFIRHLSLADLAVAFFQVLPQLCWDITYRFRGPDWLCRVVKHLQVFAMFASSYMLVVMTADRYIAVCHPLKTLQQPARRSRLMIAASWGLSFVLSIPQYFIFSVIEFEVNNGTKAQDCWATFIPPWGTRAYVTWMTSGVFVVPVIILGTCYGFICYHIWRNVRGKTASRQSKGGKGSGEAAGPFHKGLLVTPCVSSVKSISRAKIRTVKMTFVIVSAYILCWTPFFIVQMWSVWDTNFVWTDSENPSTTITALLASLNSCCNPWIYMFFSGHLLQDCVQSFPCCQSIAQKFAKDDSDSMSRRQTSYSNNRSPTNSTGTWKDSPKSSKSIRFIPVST
# [10] = test system: small cell lung cancer (SCLC) cell lines; assay: Growth in vitro of small cell lung cancer (SCLC) cell lines
# bombesin/GRP receptor [11] = target: T2, bombesin/GRP receptor (Mus musculus, UniProt P21729); assay: [125I]GRP binding to intact Swiss 3T3 cells; set-up: species or system murine; conditions: 37° C.
# T2 construct: Membrane protein (150 μg) prepared from Swiss 3T3 cells as described above; endogenous in cells; host or cells: Swiss 3T3 cells; membrane-enriched fraction prepared with 5 mM Mg2+
# T2 sequence (P21729 whole entry): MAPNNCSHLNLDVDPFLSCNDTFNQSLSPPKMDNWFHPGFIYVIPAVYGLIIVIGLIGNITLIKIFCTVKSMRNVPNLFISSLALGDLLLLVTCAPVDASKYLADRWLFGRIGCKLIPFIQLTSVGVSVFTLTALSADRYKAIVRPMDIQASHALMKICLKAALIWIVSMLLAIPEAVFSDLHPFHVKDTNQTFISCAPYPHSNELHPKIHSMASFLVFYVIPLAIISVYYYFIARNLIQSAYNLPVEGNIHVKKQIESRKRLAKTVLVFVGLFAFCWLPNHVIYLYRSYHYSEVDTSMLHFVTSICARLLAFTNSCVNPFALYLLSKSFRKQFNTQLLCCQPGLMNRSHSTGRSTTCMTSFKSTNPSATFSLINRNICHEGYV
# vasopressin receptor [12] = target: T1, vasopressin receptor; assay: [3H]vasopressin binding to Swiss 3T3 cells; set-up: species or system murine
# Swiss 3T3 cells [13] = assay: Stimulation of DNA synthesis in Swiss 3T3 cells; assay type: cell-based, murine; conditions: in the presence of insulin
# Swiss 3T3 cells [14] = assay: Cytosolic Ca2+ concentration in Fura-2 loaded Swiss 3T3 cells; assay type: cell-based, murine; conditions: Fura-2 loaded cells
# bombesin/GRP receptor [15] = target: T2, bombesin/GRP receptor; assay: 125I-GRP binding to membrane preparations of Swiss 3T3 cells; set-up: species or system murine; conditions: addition at 1μM; 0.5 nM 125I-GRP, 37° C., 10 minutes; None 305 ± 9; mean±SEM, n=3
# Procedure: Membrane preparation: Cultures in roller bottles were washed twice with 150 ml phosphate buffered saline (PBS) (0.14M NaCl, 5 mM KCl, 0.01M Na2 HPO4, 1.8 mM KH2 PO4; pH 7.2) at room temperature. The cells were then harvested at 4° C. by scraping into ice cold PBS containing 5 mM MgCl2, 1 mM [ethylenebis(oxyethylenenitrilo)]tetraacetic acid (EGTA), 1 mg/ml bacitracin, 10 ug/ml aprotonin, 1 mg/ml soybean trypsin inhibitor and 50 μM phenylmethylsulphonyl fluoride. All subsequent steps were carried out at 4° C. The cells were pelleted by centrifugation at 750 x g for 10 minutes and resuspended 5×10^6 /ml in solution A containing 50 mM 4-(2-Hydroxyethyl)-1-piperazineethanesulfonic acid (Hepes), 5 mM MgCl2, 1 mM EGTA, 1 mg/ml bacitracin, 10 μg/ml aprotonin, 1 mg/ml soybean trypsin inhibitor and 50 μM phenylmethylsulfonyl fluoride, adjusted to pH 7.4 with NaOH at 4° C. Cells were then disrupted using a Dounce homogeniser (A pestle) 75 strokes. The homogenate was centrifuged at 500 x g for 10 minutes to remove nuclear material and intact cells and the supernatant was centrifuged again at 30000 x g for 30 minutes. The resulting pellet, representing a membrane-enriched preparation was resuspended at a protein concentration of 5 to 10 mg/ml in solution A and stored in liquid nitrogen. For experiments, membranes were thawed and diluted to a concentration of 1 mg/ml with solution A.
# Receptor binding assay: Binding assays were carried out in a total volume of 100 ul in binding medium containing 50 mM Hepes, 5 mM MgCl2, 1 mg/ml bacitracin and 1% bovine serum albumin (BSA), adjusted to pH 7.4 with NaOH, unless otherwise indicated. […] Non-specific binding was subtracted from the total binding to obtain specific binding. The membranes were incubated for either 10 minutes at 37° C. or 30 minutes: at 15° C. as indicated.
# The binding reactions were terminated at the specified times by rapid filtration on GF/B glass fibre filters (Whatmann, 1.0 μm pore size). Each filter was washed five times with 5 ml of PBS containing 1% BSA at 4° C. (15 s total time) using a Millipore filtration apparatus. Before the addition of membranes the filters were soaked for 24 hours in 5% polyethylenimine at 4° C. and washed with 5 ml of PBS containing 1% BSA immediately prior to use. […] Radioactivity was determined with a Beckmann γ-counter.
# When 1n[(Beq - Bt)/(BoLo - Beq Bt)]is plotted as a function of time k1 can be determined from the slope by the following relation k1 =slope x [Beg/(Beg^2 - BoLo)](36) where Bo and Lo are the initial concentrations of receptor and ligand respectively. Bt is the concentration of receptor-ligand complex at time t and Beg is its concentration at equilibrium. Equation (1) takes into account the decrease in free ligand concentration that occurs during the binding reaction.
# The first order rate constant of dissociation was determined from the slope of the line obtained by plotting ln(Bt/Beg) as a function of time.
# The reactions were terminated and specific binding determined as described in "Experimental Procedures".
# Mr 75,000-85,000 protein = target: T3, Mr 75,000-85,000 protein (Mus musculus, UniProt P21729); assay: Chemical cross-linking (EGS) of 125I-GRP to the Mr 75,000-85,000 protein in Swiss 3T3 membranes; assay type: binding, murine; conditions: 10 min, read-out: 125I-GRP affinity labelling of the Mr 75,000-85,000 protein
# T3 construct: Membrane protein (150 μg) prepared from Swiss 3T3 cells as described above; endogenous in cells; host or cells: Swiss 3T3 cells; membrane-enriched fraction prepared with 5 mM Mg2+
# T3 sequence (P21729 whole entry): as above
# Procedure: BSA was omitted from all solutions used in the cross-linking studies. At the end of the incubation the membranes were centrifuged at 1000 rpm for 1 minute in a MSE microfuge at room n temperature. The pellets were then resuspended in cross-linking medium containing 4 mM of the cross-linking reagent (EGS) and incubated at 37° C. or 15° C. for 5 minutes or 15 minutes respectively. The reaction was terminated by centrifugation for 1 minute followed by one wash with cross-linking medium and centrifugation. Samples were solubilised in 0.20 ml of 2× sample buffer, (0.2 M Tris-HCl pH 6.8, 10% (w/v) glycerol, 6% sodium dodecyl sulphate (SDS) (w/v), 4% β-mercaptoethanol (v/v), and 2 mM EDTA), immediately heated to 100° C. for 10 minutes and analysed by one dimensional electrophoresis.
# SDS-Polyacrylaaide Gel glectrophoresis: Slab gel electrophoresis was performed using 8% acrylamide in the separating gel and 4% in the stacking gel and 0.1% SDS (37). After electrophoresis gels were stained, desrained and dried down onto paper for autoradiography with Fuji x-ray film. Dried gels were exposed for 2-4 days at -70° C. Autoradiograms were scanned using an LKB ultrascan XL densitometer; and the incorporation of radioactivity into the Mr 75,000-85,000 band was quantified using the Ultroscan XL internal digital integrator.
# Following incubation at 37° C. for 10 minutes the membranes were pelleted by centrifugation and chemical cross-linking carried out as described in "Experimental Procedures" using 4 mM EGS. The samples were analyzed by SDS-PAGE and scanning densitometry of the autoradiograms as described in "Experimental Procedures".
# bombesin/GRP receptor [16] = target: T2, bombesin/GRP receptor; conditions: previously published; cited from earlier work
# Swiss 3T3 cells [17] = assay: Ca2+ mobilisation elicited by GRP in Swiss 3T3 cells; assay type: cell-based, murine; conditions: 5 secs
# Swiss 3T3 cells [18] = assay: EGF receptor transmodulation elicited by GRP in Swiss 3T3 cells; assay type: cell-based, murine; conditions: 1 min
# [19] = target: T4, Mr 75,000-85,000 glycoprotein component of the receptor (Mus musculus, UniProt P21729); assay: Cross-linking of [125I]GRP to the Mr 75,000-85,000 glycoprotein in intact Swiss 3T3 cells; assay type: binding, murine; conditions: 1 nM [125I]GRP, 24° C.
# T4 construct: endogenous in cells; host or cells: Swiss 3T3 cells (intact, confluent and quiescent)
# T4 sequence (P21729 whole entry): as above
# Procedure: Methods: Swiss 3T3 cells were maintained in culture and assays of DNA synthesis performed as previously described 2,4,6 In all the figures, values shown represent the mean of at least 2 determinations. […] After 10 mins they were washed twice with binding medium, then incubated at 24° C. in 1 ml containing […] ethylene glycol bis(succinimidylsuccinate) at pH 7.4. After 10 mins they were washed twice with cold binding medium and solubilised in 100 μl sample buffer^8,then immediately boiled for 5 mins, and electrophoresed on a 10% polyacrylamide gel.
# [20] = test system: guinea pig pancreatic acini; conditions: read-out: 50% inhibition (IC50) of bombesin-stimulated amylase release; cited from earlier work
molecule,measurement,setting,value
"CC(C)C[C@H](NC(=O)[C@H](CC(C)C)NC(=O)[C@@H](Cc1c[nH]c2ccccc12)NC(=O)[C@H](Cc1ccccc1)NC(=O)[C@@H](Cc1c[nH]c2ccccc12)NC(=O)[C@H](CCC(N)=O)NC(=O)[C@@H](Cc1ccccc1)NC(=O)[C@@H]1CCCN1C(=O)[C@H](CCCCN)NC(=O)[C@@H]1CCCN1C(=O)[C@H](N)CCCNC(=N)N)C(N)=O [antagonist D, D-Arg-Pro-Lys-Pro-D-Phe-Gln-D-Trp-Phe-D-Trp-Leu-Leu-NH2] (H-[dR]PKP[dF]Q[dW]F[dW]LL-NH2)",inhibition of vasopressin-induced DNA synthesis,Swiss 3T3 cells [1]; 1 uM L.PSI.LB or antagonist D,potent inhibitor
same,"inhibition of mitogenesis stimulated by EGF, PDGF, phorbol dibutyrate, cholera toxin and 8-bromo-cAMP",Swiss 3T3 cells [2]; 20 μM antagonist D or 1 μm L.PSI.LB,Neither of them inhibited
same,inhibition of mitogenesis stimulated by VIP,"Swiss 3T3 cells [3]; VIP 3.0 nM, 20 μM antagonist D or 1 μm L.PSI.LB",Neither antagonist D nor [Leu^13 -.PSI.(CH2 NH)Leu^14 ]bombesin inhibited
same,potency relative to antagonist A against each mitogen,[4],5-10 fold
same,effect against DNA synthesis induced by various bombesin-like peptides,"Swiss 3T3 cells [5]; 20 μM antagonist D or 1 μm L.PSI.LB, GRP 3.6 nM, bombesin 1.2 nM, litorin 1.8 nM",effective
same,IC50,Swiss 3T3 cells [6],8.3 µM
same,potency as bombesin antagonist relative to antagonist A,Swiss 3T3 cells [7],5-10 fold
same,inhibition of vasopressin-stimulated DNA synthesis,Swiss 3T3 cells [8],inhibit
same,inhibition of [3H]vasopressin binding,vasopressin receptor [9],inhibit
same,potency relative to Antagonist A in inhibiting growth of SCLC,[10],5-10 fold
"RPPGFSPFR [Bradykinin, bradykinin]",inhibition of specific binding of [125I]GRP to the cells,bombesin/GRP receptor [11],did not inhibit
same,inhibition of [3H]vasopressin binding,vasopressin receptor [12],did not inhibit
same,stimulation of DNA synthesis,Swiss 3T3 cells [13],maximal stimulation
same,change in cytosolic Ca2+ concentration,Swiss 3T3 cells [14],rapid and transient increase
same,specific binding of 125I-GRP to membranes,bombesin/GRP receptor [15],302 ± 9 fmole/mg protein
same,remaining activity at 1 µM,"Mr 75,000-85,000 protein",95 ± 3%
"CSCC[C@H](NC(=O)[C@H](CC(C)C)NC(=O)CNC(=O)[C@H](Cc1ccccc1)NC(=O)[C@H](Cc1ccccc1)NC(=O)[C@H](CCC(N)=O)NC(=O)[C@H](CCC(N)=O)NC(=O)[C@@H]1CCCN1C(=O)[C@H](CCCCN)NC(=O)[C@@H]1CCCN1C(=O)[C@@H](N)CCCNC(=N)N)C(N)=O [substance P, Arg-Pro-Lys-Pro-Gln-Gln-phe-phe-Gly-Leu-Met-NH2]",specific binding of 125I-GRP to membranes,bombesin/GRP receptor [15],305 ± 4 fmole/mg protein
same,remaining activity at 1 µM,"Mr 75,000-85,000 protein; addition at 1μM, 0.5 nM 125I-GRP, 37° C., 10 minutes, None 100",93 ± 2%
same,inhibition of binding of [125I]GRP to Swiss 3T3 cells,bombesin/GRP receptor [16],neither inhibits
CC(C)C[C@@H](CN[C@@H](CC(C)C)C(N)=O)NC(=O)[C@H](Cc1c[nH]cn1)NC(=O)CNC(=O)[C@@H](NC(=O)[C@H](C)NC(=O)[C@H](Cc1c[nH]c2ccccc12)NC(=O)[C@H](CCC(N)=O)NC(=O)[C@H](CC(N)=O)NC(=O)CNC(=O)[C@H](CC(C)C)NC(=O)[C@H](CCCNC(=N)N)NC(=O)[C@H](CCC(N)=O)NC(=O)[C@@H]1CCC(=O)N1)C(C)C [[Leu^13 -.PSI.(CH2 NH)Leu^14]bombesin] ([pGlu]QRLGNQWAVGH-X1; C-terminus assumed),inhibition of vasopressin-induced DNA synthesis,Swiss 3T3 cells [1],no effect
same,"inhibition of mitogenesis stimulated by EGF, PDGF, phorbol dibutyrate, cholera toxin and 8-bromo-cAMP",Swiss 3T3 cells [2],Neither of them inhibited
same,inhibition of mitogenesis stimulated by VIP,Swiss 3T3 cells [3],Neither antagonist D nor [Leu^13 -.PSI.(CH2 NH)Leu^14 ]bombesin inhibited
same,block of Ca2+ mobilisation elicited by GRP,Swiss 3T3 cells [17],blocked
same,block of EGF receptor transmodulation elicited by GRP,Swiss 3T3 cells [18],blocked
same,inhibition of specific binding of [125I]GRP to the cells,bombesin/GRP receptor [11],inhibited
same,"block of cross-linking of [125I]GRP to the Mr 75,000-85,000 glycoprotein",[19],blocked
same,effect against DNA synthesis induced by various bombesin-like peptides,Swiss 3T3 cells [5],effective
same,inhibition of GRP-induced DNA synthesis,Swiss 3T3 cells [5],strongly inhibited
same,effect on bradykinin-stimulated DNA synthesis,Swiss 3T3 cells [6]; 1 μM L.PSI.LB,no effect
same,IC50,[20],0.035 µM
